In patent publication US20020183205A1, “Use of alpha2-adrenergic receptor agonists and adrenergic inhibitors in reducing defoliation” (priority 2001, published 2002):

What was measured:
Format in all cases: in vivo
Valencia orange = experiment: Leaf drop of Valencia orange, Ethrel, coronatine, coronatine+guanfacine; conditions: 10 days after application
Description: The effect of Ethrel, coronatine, coronatine+guanfacine, and adjuvant alone on % cumulative leaf drop in Valencia orange was tested. The data reported in Table 3 are means of 3 branches times 5 trees, 10 days after application.

[1] = tested on: calamondin (Citrus madurensis); experiment: Fruit detachment force (FDF) of calamondin after canopy spray with agonists alone or in combination with Ethrel; conditions: 5 days after application
Description: (§1) A solution of an α2-adrenergic agonist was prepared. The solution contained 0.25 to 2 mM of agonist dissolved in water containing an appropriate surfactant. Ethrel® (2-chloroethyl phosphonic acid), an abscission agent, was added at a concentration that causes fruit loosening (in the case of citrus, 100 to 400 mg/L, depending on the variety). The solution was sprayed onto a tree canopy until “run-off,” typically about 2.5 liters per 15 foot tree. […] Under field conditions the canopies were not sprayed with the agonist-containing solutions if rainfall was anticipated within 24 hours. A positive control, containing a suitable concentration of Ethrel® or other abscission agent, as well as an agonist and surfactant control were sprayed on separate canopies. After several days, usually 3 to 10, differences in leaf drop were measured by counting or weighing dropped leaves. Fruit detachment force (FDF, a measurement defined as the force required to remove fruit from the tree stem) was measured in all treatments.
(§2) Kinetic® was used as a surfactant. Leaf drop data are leaf loss means of 3 branches times 10 trees, 7 days after application. FDF data are means of 5 fruit times 10 trees, 5 days after application.

[2] = tested on: calamondin (Citrus madurensis); experiment: Leaf drop of calamondin after canopy spray with agonists alone or in combination with Ethrel; conditions: 7 days after application
Description: as §1, §2

[3] = tested on: Valencia orange (Citrus sinensis); experiment: Leaf drop of Valencia orange, clonidine alone or in combination with Ethrel; conditions: 7 days after application
Description: as §1
Kinetic® was used as a surfactant. Data are the leaf loss means of 3 branches times 5 trees, 7 days after application.

[4] = agonist 1 mM + Ethrel 400 mg/L, Kinetic surfactant
[5] = agonist 1 mM alone, Kinetic surfactant
[6] = Ethrel 400 mg/L alone (positive control)
[7] = agonist 0.5 mM + Ethrel 400 mg/L, Kinetic surfactant
[8] = agonist 0.5 mM alone, Kinetic surfactant

CC[C@H]1C=C(C(=O)N[C@@]2(C(=O)O)C[C@@H]2CC)[C@H]2CCC(=O)[C@H]2C1 [coronatine]
% Cumulative Leaf Drop (Valencia orange; coronatine 200 mg/L alone): 12.56%

N=C(N)N/N=C/c1c(Cl)cccc1Cl [Guanabenz, guanabenz]
% Reduction in FDF [1, 4]: 34.6%
% Reduction in FDF [1, 5]: 1.0%
% Cumulative Leaf Drop [2, 4]: 14.1%
% Cumulative Leaf Drop [2, 5]: 5.9%

Clc1cccc(Cl)c1N=C1NCCN1 [Clonidine, clonidine]
% Cumulative Leaf Drop ([3]; 1 mM clonidine + Ethrel 100 mg/L): 6.1%
% Cumulative Leaf Drop ([3]; 1 mM clonidine + Ethrel 200 mg/L): 14.3%
% Cumulative Leaf Drop ([3]; 1 mM clonidine alone): 2.7%
% Cumulative Leaf Drop ([3]; 2 mM clonidine + Ethrel 100 mg/L): 7.0%
% Cumulative Leaf Drop ([3]; 2 mM clonidine + Ethrel 200 mg/L): 15.1%
% Cumulative Leaf Drop ([3]; 2 mM clonidine alone): 3.2%
% Reduction in FDF [1, 4]: 40.5%
% Reduction in FDF [1, 5]: 0.5%
% Cumulative Leaf Drop [2, 4]: 13.4%
% Cumulative Leaf Drop [2, 5]: 5.8%

O=P(O)(O)CCCl [Ethrel ®, 2-chloroethyl phosphonic acid]
% Cumulative Leaf Drop (Valencia orange; Ethrel 200 mg/L alone): 49.23%
% Cumulative Leaf Drop ([3]; Ethrel 100 mg/L alone): 19.1%
% Cumulative Leaf Drop ([3]; Ethrel 200 mg/L alone): 43.8%
% Reduction in FDF [1, 6]: 41.6%
% Cumulative Leaf Drop [2, 6]: 68.3%

N=C(N)NC(=O)Cc1c(Cl)cccc1Cl [Guanafacine, guanfacine]
% Cumulative Leaf Drop (Valencia orange; 2 mM guanfacine + coronatine 200 mg/L): 3.07%
% Reduction in FDF [1, 4]: 34.8%
% Reduction in FDF [1, 5]: 1.0%
% Cumulative Leaf Drop [2, 4]: 4.8%
% Cumulative Leaf Drop [2, 5]: 6.5%

Brc1c(NC2=NCCN2)ccc2nccnc12 [UK14,304, Brimonidine]
% Reduction in FDF [1, 7]: 33.4%
% Reduction in FDF [1, 8]: 1.2%
% Cumulative Leaf Drop [2, 7]: 15.6%
% Cumulative Leaf Drop [2, 8]: 6.0%
